In general, inhibition refers to the drop in the measured response relative to a control, in per cent.

We go through 19 compounds from patent publication US10077261B2, “Imidazolin-5-one derivative useful as FASN inhibitors for the treatment of cancer” (Janssen Pharmaceutica NV, priority 2012, dated 2018).

The structures appear in SMILES notation. A value given as a limit tells only on which side of the number the result lay.

In this assay the target is T1, hFASN enzyme (full length) (Homo sapiens, UniProt P49327).
T1 construct: 10 μL hFASN enzyme (full length, 300 ng, purified in house); made in house
T1 sequence (P49327 whole entry): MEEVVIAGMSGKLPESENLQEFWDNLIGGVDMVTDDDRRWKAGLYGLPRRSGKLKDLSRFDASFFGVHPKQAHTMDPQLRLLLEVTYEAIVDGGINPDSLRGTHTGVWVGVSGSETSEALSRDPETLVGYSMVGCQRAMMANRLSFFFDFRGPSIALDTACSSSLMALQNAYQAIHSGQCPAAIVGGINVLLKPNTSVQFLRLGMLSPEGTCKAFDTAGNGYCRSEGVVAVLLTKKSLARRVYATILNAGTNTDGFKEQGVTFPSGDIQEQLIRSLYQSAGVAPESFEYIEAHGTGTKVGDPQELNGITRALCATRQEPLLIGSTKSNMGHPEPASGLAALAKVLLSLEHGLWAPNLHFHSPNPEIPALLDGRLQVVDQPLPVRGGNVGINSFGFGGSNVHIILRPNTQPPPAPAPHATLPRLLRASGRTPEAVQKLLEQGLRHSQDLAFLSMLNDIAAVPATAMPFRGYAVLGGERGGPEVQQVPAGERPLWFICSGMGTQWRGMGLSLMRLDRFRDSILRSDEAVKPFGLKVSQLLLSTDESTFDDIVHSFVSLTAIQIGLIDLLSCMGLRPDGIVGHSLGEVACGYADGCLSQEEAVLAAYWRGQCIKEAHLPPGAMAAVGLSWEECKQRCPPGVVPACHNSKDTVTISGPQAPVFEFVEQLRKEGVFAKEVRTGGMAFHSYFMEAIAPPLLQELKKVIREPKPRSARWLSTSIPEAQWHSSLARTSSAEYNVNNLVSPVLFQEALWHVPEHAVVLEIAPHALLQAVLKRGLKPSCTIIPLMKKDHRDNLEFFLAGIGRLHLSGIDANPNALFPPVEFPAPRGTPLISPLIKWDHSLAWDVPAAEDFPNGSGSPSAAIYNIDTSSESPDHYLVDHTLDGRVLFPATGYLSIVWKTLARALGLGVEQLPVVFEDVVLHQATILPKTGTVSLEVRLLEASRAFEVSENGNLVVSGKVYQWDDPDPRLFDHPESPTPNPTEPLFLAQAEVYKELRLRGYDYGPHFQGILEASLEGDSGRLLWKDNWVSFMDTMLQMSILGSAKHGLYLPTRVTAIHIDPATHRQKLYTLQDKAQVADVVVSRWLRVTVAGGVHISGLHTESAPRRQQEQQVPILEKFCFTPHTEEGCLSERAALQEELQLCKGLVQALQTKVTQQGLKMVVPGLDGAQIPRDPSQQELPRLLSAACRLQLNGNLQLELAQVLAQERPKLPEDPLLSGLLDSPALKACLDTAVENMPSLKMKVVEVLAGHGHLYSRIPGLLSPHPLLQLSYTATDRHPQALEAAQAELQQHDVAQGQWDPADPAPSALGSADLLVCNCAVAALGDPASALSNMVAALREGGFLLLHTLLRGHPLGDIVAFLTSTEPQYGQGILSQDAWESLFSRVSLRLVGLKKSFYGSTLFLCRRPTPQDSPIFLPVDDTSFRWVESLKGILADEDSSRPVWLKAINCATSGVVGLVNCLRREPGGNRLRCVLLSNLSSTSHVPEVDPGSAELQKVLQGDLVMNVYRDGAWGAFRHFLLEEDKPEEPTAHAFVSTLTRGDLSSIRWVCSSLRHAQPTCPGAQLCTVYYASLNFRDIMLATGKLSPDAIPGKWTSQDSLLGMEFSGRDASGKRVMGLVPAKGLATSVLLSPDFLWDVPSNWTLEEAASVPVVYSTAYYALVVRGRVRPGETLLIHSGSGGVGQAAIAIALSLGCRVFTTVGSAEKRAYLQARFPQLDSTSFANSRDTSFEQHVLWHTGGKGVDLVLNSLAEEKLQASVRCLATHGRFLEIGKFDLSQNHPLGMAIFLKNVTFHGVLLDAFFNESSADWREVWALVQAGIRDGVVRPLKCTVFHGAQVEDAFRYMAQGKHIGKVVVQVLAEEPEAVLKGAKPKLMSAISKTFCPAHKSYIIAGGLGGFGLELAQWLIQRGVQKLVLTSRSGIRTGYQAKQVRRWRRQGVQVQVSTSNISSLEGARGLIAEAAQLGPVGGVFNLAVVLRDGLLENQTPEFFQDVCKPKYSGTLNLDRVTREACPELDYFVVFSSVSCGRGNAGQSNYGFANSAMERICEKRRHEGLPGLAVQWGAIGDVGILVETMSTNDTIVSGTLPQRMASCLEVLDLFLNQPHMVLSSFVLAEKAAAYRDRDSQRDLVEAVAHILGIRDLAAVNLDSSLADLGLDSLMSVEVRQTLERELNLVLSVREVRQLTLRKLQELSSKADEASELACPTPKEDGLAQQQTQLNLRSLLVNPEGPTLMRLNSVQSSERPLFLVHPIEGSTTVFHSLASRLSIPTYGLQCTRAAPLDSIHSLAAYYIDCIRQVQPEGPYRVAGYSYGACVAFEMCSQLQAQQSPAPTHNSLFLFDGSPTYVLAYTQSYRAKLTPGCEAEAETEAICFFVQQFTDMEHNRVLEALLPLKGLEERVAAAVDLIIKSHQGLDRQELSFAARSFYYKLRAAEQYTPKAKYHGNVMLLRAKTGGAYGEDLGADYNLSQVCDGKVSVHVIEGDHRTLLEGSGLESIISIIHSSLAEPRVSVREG
The assay can be described thus: Fatty Acid Synthase (FASN) inhibition scintillation proximity assay. The assay is classed as biochemical. The settings on record: for inhibition at 10 µM: read-out: Human FASN % inhibition @ 10 μM, 10 μM test compound; for IC50: read-out: Human FASN pIC50 (converted). As for the experimental part: In this assay, inhibition of FASN activity is measured using ^3H-acetyl-CoA and malonyl-CoA as substrates. ^3H-Acetyl CoA is converted to ^3H-palmitate through a series of reactions by the FASN protein, which contains 7 functional domains and carries out 7 enzymatic reactions to ultimately produce ^3H-palmitate. The assay principle is based upon the fact that ^3H-acetyl-CoA is hydrophilic and the end product, ^3H-palmitate is hydrophobic.
10 μL assay buffer (100 mM KH2PO4 pH 7.5, 1 mM DTT) (20 μL in blanks) was added to a 384-well white optiplate plate (Perkin Elmer). 0.9 μL test compound (at concentrations of 30 μM, 10 μM, 3 μM, 1 μM, 0.30 μM, 0.10 μM, 0.03 μM and 0.01 μM)/DMSO and 10 μL hFASN enzyme (full length, 300 ng, purified in house) or 10 μL assay buffer was added to the wells. […] The reaction was stopped by adding 20 μL Streptavidin coupled imaging beads (25 mg/ml). After incubation for 30 minutes at room temperature in the dark, the 384 well plate was centrifuged at 1500 rpm for 3 minutes and was measured after at least 24 hrs by the LEADseeker™, measuring emission using a 610±20 nm pass filter.
where mLC and mHC were the means of the low control wells and high control wells on the plate, after manual exclusion of outliers. A plot of Controlmin versus test compound concentration was fitted to a 4-parameter logistic curve using a non-linear least squares regression method.
(Scintillation proximity formats need no separation of bound from free tracer.)

Regarding `O=C(C1CC1)N1CC[C@@H](CN2C(=O)C3(CCCC3)N=C2c2ccc(-c3ccncc3)cc2)C1` [compound 3, 3-{[(3R)-1-(Cyclopropylcarbonyl)pyrrolidin-3-yl]methyl}-2-(4-pyridin-4-ylphenyl)-1,3-diazaspiro[4.4]non-1-en-4-one], the inhibition at 10 µM came to 44.3% and the IC50 is greater than 10 µM. Turning to `O=C(C1CC1)N1CC[C@@H](CN2C(=O)C3(CCCC3)N=C2c2ccc(-c3cccnc3)cc2)C1` [compound 5, 3-{[(3R)-1-(Cyclopropylcarbonyl)pyrrolidin-3-yl]methyl}-2-(4-pyridin-3-ylphenyl)-1,3-diazaspiro[4.4]non-1-en-4-one], the inhibition at 10 µM was determined as 74.6% and the IC50 is 2.14 µM. `O=C(C1CC1)N1CCC(CN2C(=O)C3(CC3)N=C2c2ccc(-c3cccnc3)cc2)CC1` [compound 6, 6-{[1-(Cyclopropylcarbonyl)piperidin-4-yl]methyl}-5-(4-pyridin-3-ylphenyl)-4,6-diazaspiro[2.4]hept-4-en-7-one]: the inhibition at 10 µM was found to be 61.6% and the IC50 is 7.24 µM. For the compound `N#Cc1ccc(-c2ccc(C3=NC4(CC4)C(=O)N3CC3CCN(C(=O)C4CC4)CC3)cc2)cc1` [compound 7, 4′-(6-{[1-(Cyclopropylcarbonyl)piperidin-4-yl]methyl}-7-oxo-4,6-diazaspiro[2.4]hept-4-en-5-yl)biphenyl-4-carbonitrile], the inhibition at 10 µM worked out at 33.7%.

Regarding `Cn1nccc1-c1ccc(C2=NC3(CC3)C(=O)N2CC2CCN(C(=O)C3CC3)CC2)cc1` [compound 8, 6-{[1-(Cyclopropylcarbonyl)piperidin-4-yl]methyl}-5-[4-(1-methyl-1H-pyrazol-5-yl)phenyl]-4,6-diazaspiro[2.4]hept-4-en-7-one], the inhibition at 10 µM came out at 5.1% and the IC50 was greater than 10 µM. The corresponding values for `Cn1cc(-c2ccc(C3=NC4(CC4)C(=O)N3CC3CCN(C(=O)C4CC4)CC3)cc2)cn1` [compound 9, 6-{[1-(Cyclopropylcarbonyl)piperidin-4-yl]methyl}-5-[4-(1-methyl-1H-pyrazol-4-yl)phenyl]-4,6-diazaspiro[2.4]hept-4-en-7-one] are 11.4% and greater than 10 µM.

On to `Cn1cc(-c2ccc(C3=NC4(CCCC4)C(=O)N3C[C@@H]3CCN(C(=O)C4CC4)C3)cc2)cn1` [compound 13, 3-{[(3R)-1-(Cyclopropylcarbonyl)pyrrolidin-3-yl]methyl}-2-[4-(1-methyl-1H-pyrazol-4-yl)phenyl]-1,3-diazaspiro[4.4]non-1-en-4-one], for which the inhibition at 10 µM worked out at 29.7% and the IC50 is greater than 10 µM. For the compound `COC(=O)N1CCC2(CC1)N=C(c1ccc(-c3ccc4occc4c3)cc1)N(CC1CN(C(=O)C3CC3)C1)C2=O` [compound 16, Methyl 2-[4-(1-benzofuran-5-yl)phenyl]-3-{[1-(cyclopropylcarbonyl)azetidin-3-yl]methyl}-4-oxo-1,3,8-triazaspiro[4.5]dec-1-ene-8-carboxylate], the inhibition at 10 µM amounted to 72.5% and the IC50 is 1.38 µM. For `O=C(C1CC1)N1CC[C@@H](CN2C(=O)C3(CCCC3)N=C2c2ccc(-c3ccccn3)cc2)C1` [compound 18, 3-{[(3R)-1-(Cyclopropylcarbonyl)pyrrolidin-3-yl]methyl}-2-(4-pyridin-2-ylphenyl)-1,3-diazaspiro[4.4]non-1-en-4-one] the same measures were 42.7% and greater than 10 µM. For `O=C(C1CC1)N1CC[C@@H](CN2C(=O)C3(CCCC3)N=C2c2ccc(-c3ccnc4ccccc34)cc2)C1` [compound 22, 3-{[(3R)-1-(Cyclopropylcarbonyl)pyrrolidin-0 3-yl]methyl}-2-(4-quyinolin-4-ylphenyl)-1,3-diazaspiro[4.4]non-1-en-4-one], the inhibition at 10 µM was found to be 85% and the IC50 was 1.07 µM. Regarding `Cn1ncc2ccc(-c3ccc(C4=NC5(CC5)C(=O)N4CC4CCN(C(=O)C5CC5)CC4)cc3)cc21` [compound 24, 6-{[1-(Cyclopropylcarbonyl)piperidin-4-yl]methyl}-5-[4-(1-methyl-1H-indazol-6-yl)phenyl]-4,6-diazaspiro[2.4]hept-4-en-7-one], the inhibition at 10 µM turned out to be 76.4% and the IC50 was 1.86 µM. The corresponding values for `O=C(C1CC1)N1CCC(CN2C(=O)C3(CC3)N=C2c2ccc(-c3ccc4ccncc4c3)cc2)CC1` [compound 25, 6-{[1-(Cyclopropylcarbonyl)piperidin-4-yl]methyl}-5-(4-isoquinolin-7-ylphenyl)-4,6-diazaspiro[2.4]hept-4-en-7-one] are 64.4% and roughly 4.9 µM. For `O=C(C1CC1)N1CCC(CN2C(=O)C3(CC3)N=C2c2ccc(-c3ccncc3)cc2)CC1` [compound 32, 6-{[1-(Cyclopropylcarbonyl)piperidin-4-yl]methyl}-5-(4-pyridin-4-ylphenyl)-4,6-diazaspiro[2.4]hept-4-en-7-one], the inhibition at 10 µM is 6.8% and the IC50 was greater than 10 µM.

As to `O=C(C1CC1)N1CCC(CN2C(=O)C3(CC3)N=C2c2ccc(-c3ccc4ocnc4c3)cc2)CC1` [compound 37, 5-[4-(1,3-Benzoxazol-5-yl)phenyl]-6-{[1-(cyclopropylcarbonyl)piperidin-4-yl]methyl}-4,6-diazaspiro[2.4]hept-4-en-7-one], the inhibition at 10 µM came to 28.6% and the IC50 is greater than 10 µM. As to `Cn1cc(-c2ccc(C3=NC4(CC4)C(=O)N3CC3CN(C(=O)C4CC4)C3)cc2)cn1` [compound 42, 6-{[1-(Cyclopropylcarbonyl)azetidin-3-yl]methyl}-5-[4-(1-methyl-1H-pyrazol-4-yl)phenyl]-4,6-diazaspiro[2.4]hept-4-en-7-one], the inhibition at 10 µM came to 23.5% and the IC50 is greater than 10 µM.

On to `Cn1nccc1-c1ccc(C2=NC3(CC3)C(=O)N2CC2CN(C(=O)C3CC3)C2)cc1` [compound 43, 6-{[1-(Cyclopropylcarbonyl)azetidin-3-yl]methyl}-5-[4-(1-methyl-1H-pyrazol-5-yl)phenyl]-4,6-diazaspiro[2.4]hept-4-en-7-one], for which the inhibition at 10 µM was 45.4% and the IC50 is roughly 10 µM.

On to `CN1CCN(c2ccc(-c3ccc(C4=NC5(CCCC5)C(=O)N4C[C@@H]4CCN(C(=O)C5CC5)C4)cc3)cn2)CC1` [compound 44, 3-{[(3R)-1-(Cyclopropylcarbonyl)pyrrolidin-3-yl]methyl}-2-{4-[6-(4-methylpiperazin-1-yl)pyridin-3-yl]phenyl}-1,3-diazaspiro[4.4]non-1-en-4-one], for which the inhibition at 10 µM was -0.97% and the IC50 was greater than 10 µM. The corresponding values for `O=C(C1CC1)N1CC(CN2C(=O)C3(CC3)N=C2c2ccc(-c3ccc(O)cc3)cc2)C1` [compound 50, 6-{[1-(Cyclopropylcarbonyl)azetidin-3-yl]methyl}-5-(4′-hydroxybiphenyl-4-yl)-4,6-diazaspiro[2.4]hept-4-en-7-one] are 64.8% and 3.47 µM.

For `Nc1cc(-c2ccc(C3=NC4(CC4)C(=O)N3CC3CN(C(=O)C4CC4)C3)cc2)ccc1O` [compound 53, 5-(3′-Amino-4′-hydroxybiphenyl-4-yl)-6-{[1-(cyclopropylcarbonyl)azetidin-3-yl]methyl}-4,6-diazaspiro[2.4]hept-4-en-7-one], the inhibition at 10 µM is 78.6% and the IC50 was 1.95 µM.
